How the values were obtained:
PRMT5 [1] = biological target: T1, PRMT5 (Homo sapiens, UniProt O14744); assay: PRMT5 inhibition assay with SAM as cofactor; format: biochemical; details: against PRMT5 in the presence of SAM as cofactor
T1 construct: purchased Viva (custom protein)
Text: (§1) The Ki values can be calculated from the IC50 values as described in the Examples section. As detailed in the Examples section, for the assay performed in the presence of SAM, IC50=Ki×1.5 (Ki=IC50/1.5). For the assay performed in the presence of MTA, IC50=Ki×13.5 (Ki=IC50/13.5). Column 6 indicates the ratio between the Ki of compounds in the presence of SAM and the Ki of compounds in the presence of MTA

PRMT5 [2] = biological target: T1, PRMT5; assay: PRMT5 inhibition assay with no cofactor; format: biochemical; details: against PRMT5 with no cofactor; read-out: No Co-factor IC50
PRMT5 [3] = biological target: T1, PRMT5; assay: PRMT5 inhibition assay with MTA as cofactor; format: biochemical; details: for IC50: against PRMT5 with MTA as cofactor; for SAM/MTA Ratio: ratio of Ki in the presence of SAM to Ki in the presence of MTA, Ki=IC50/1.5 (SAM), Ki=IC50/13.5 (MTA)
Text: as §1

[4] = test system: HAP1 MTAP-deleted cell line; assay: SDMA in-cell western assay, HAP1 MTAP-deleted; format: cell-based; details: for IC50: Homo sapiens, HAP1 MTAP-deleted (MTAP-null) cell line; for MTAP Intact/Deleted Ratio: IC50 ratio HAP1 MTAP-intact / HAP1 MTAP-deleted, >=3 fold considered MTAP-selective
Procedure, shortened: (§2)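 IC50 values come from an SDMA in-cell western run in isogenic HAP1 cells, either MTAP-null or expressing endogenous MTAP. The intact-to-deleted IC50 ratio is used to score MTAP selectivity.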

[5] = test system: HAP1 MTAP-intact cell line; assay: SDMA in-cell western assay, HAP1 MTAP-intact; format: cell-based; details: Homo sapiens
Procedure, shortened: as §2

T1 sequence (O14744 whole entry): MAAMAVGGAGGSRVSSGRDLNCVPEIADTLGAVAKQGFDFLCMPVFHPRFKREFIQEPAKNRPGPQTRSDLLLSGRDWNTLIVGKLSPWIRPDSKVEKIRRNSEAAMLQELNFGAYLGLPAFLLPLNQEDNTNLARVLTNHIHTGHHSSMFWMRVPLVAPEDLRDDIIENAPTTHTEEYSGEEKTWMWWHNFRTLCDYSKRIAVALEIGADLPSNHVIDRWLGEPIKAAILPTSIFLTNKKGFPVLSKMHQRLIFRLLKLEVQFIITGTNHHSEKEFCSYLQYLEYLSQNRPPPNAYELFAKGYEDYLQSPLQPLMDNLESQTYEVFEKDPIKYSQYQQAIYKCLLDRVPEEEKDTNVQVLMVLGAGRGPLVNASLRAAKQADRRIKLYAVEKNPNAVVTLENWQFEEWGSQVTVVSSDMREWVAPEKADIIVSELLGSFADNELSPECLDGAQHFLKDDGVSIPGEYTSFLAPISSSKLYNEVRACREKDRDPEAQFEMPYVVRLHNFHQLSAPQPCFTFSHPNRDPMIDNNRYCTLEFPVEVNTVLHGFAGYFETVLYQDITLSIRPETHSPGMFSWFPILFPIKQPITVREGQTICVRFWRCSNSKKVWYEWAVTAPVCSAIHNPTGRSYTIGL
T1 sequence (Q9BQA1 whole entry partner): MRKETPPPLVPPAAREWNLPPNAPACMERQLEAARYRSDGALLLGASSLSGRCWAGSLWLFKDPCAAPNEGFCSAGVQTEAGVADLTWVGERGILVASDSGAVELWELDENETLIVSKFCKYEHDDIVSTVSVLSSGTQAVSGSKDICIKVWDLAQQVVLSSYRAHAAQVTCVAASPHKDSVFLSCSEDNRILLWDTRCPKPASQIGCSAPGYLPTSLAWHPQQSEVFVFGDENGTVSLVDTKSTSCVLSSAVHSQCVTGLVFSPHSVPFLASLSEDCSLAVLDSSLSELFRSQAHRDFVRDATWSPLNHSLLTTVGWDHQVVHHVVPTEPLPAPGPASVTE

`COc1ccc(C(=O)N2CCc3cc(C(=O)NC[C@@H](O)[C@@H]4Cc5ccc(OCc6ocnc6C)cc5CN4)ccc3C2)cc1` [Compound 21, N—((R)-2-hydroxy-2-((S)-7-((4-methyloxazol-5-yl)methoxy)-1,2,3,4-tetrahydroisoquinolin-3-yl)ethyl)-2-(4-methoxybenzoyl)-1,2,3,4-tetrahydroisoquinoline-6-carboxamide] was tested, and the IC50 (PRMT5 [1]) was 0.05 to 0.5 µM, the IC50 (PRMT5 [2]) was 0.05 to 0.5 µM and the IC50 (PRMT5 [3]) was under 0.05 µM. The “SAM/MTA Ratio” value (PRMT5 [3]) was “A (a Ki ratio greater than or equal to 10 fold between the Ki in the presence of SAM and the Ki in the presence of MTA)”, the IC50 [4] was under 1 µM and the “MTAP Intact/Deleted Ratio” value [4] was “A* (an IC50 ratio greater than or equal to 10 fold between the IC50 in the HAP1 MTAP-intact cell line and the HAP1 MTAP-deleted cell line)”. The IC50 [5] was 1 to 10 µM.
For `Cc1ncoc1COc1ccc2c(c1)CN[C@H]([C@H](O)CNC(=O)c1cc(NC3CCC3)cc(N3CCCCC3)c1)C2` [Compound 58, 3-(cyclobutylamino)-N-[(2R)-2-hydroxy-2-[(3S)-7-[(4-methyloxazol-5-yl)methoxy]-1,2,3,4-tetrahydroisoquinolin-3-yl]ethyl]-5-(1-piperidyl)benzamide], the IC50 (PRMT5 [1]) was 0.05 to 0.5 µM, the IC50 (PRMT5 [2]) was 0.05 to 0.5 µM and the IC50 (PRMT5 [3]) was under 0.05 µM. The “SAM/MTA Ratio” value (PRMT5 [3]) was “A (a Ki ratio greater than or equal to 10 fold between the Ki in the presence of SAM and the Ki in the presence of MTA)”, the IC50 [4] was under 1 µM and the “MTAP Intact/Deleted Ratio” value [4] was “A* (an IC50 ratio greater than or equal to 10 fold between the IC50 in the HAP1 MTAP-intact cell line and the HAP1 MTAP-deleted cell line)”. The IC50 [5] was 1 to 10 µM.
Compound `CCN(C)c1cc(C(=O)NC[C@@H](O)[C@@H]2Cc3ccc(OCc4ocnc4C)cc3CN2)cc(NC2CCC2)n1` [Compound 24, 2-(cyclobutylamino)-6-(ethyl(methyl)amino)-N—((R)-2-hydroxy-2-((S)-7-((4-methyloxazol-5-yl)methoxy)-1,2,3,4-tetrahydroisoquinolin-3-yl)ethyl)isonicotinamide] has an IC50 (PRMT5 [1]) of 0.05 to 0.5 µM, an IC50 (PRMT5 [2]) of 0.05 to 0.5 µM and an IC50 (PRMT5 [3]) of 0.05 to 0.5 µM. For the same compound, the “SAM/MTA Ratio” value (PRMT5 [3]) was “A (a Ki ratio greater than or equal to 10 fold between the Ki in the presence of SAM and the Ki in the presence of MTA)”, the IC50 [4] was under 1 µM and the “MTAP Intact/Deleted Ratio” value [4] was “A* (an IC50 ratio greater than or equal to 10 fold between the IC50 in the HAP1 MTAP-intact cell line and the HAP1 MTAP-deleted cell line)”. It also gave an IC50 [5] of at least 10 µM.
With `CCOc1cc(C(=O)N2[C@@H]3CCC[C@H]2COC3)ccc1C(=O)NC[C@@H](O)[C@@H]1Cc2ccc(OCc3ocnc3C)cc2CN1` [Compound 10, 4-((1R,5S)-3-oxa-9-azabicyclo[3.3.1]nonane-9-carbonyl)-2-ethoxy-N—((R)-2-hydroxy-2-((S)-7-((4-methyloxazol-5-yl)methoxy)-1,2,3,4-tetrahydroisoquinolin-3-yl)ethyl)benzamide] the IC50 (PRMT5 [1]) was 0.05 to 0.5 µM, the IC50 (PRMT5 [2]) was 0.05 to 0.5 µM and the IC50 (PRMT5 [3]) was under 0.05 µM. The “SAM/MTA Ratio” value (PRMT5 [3]) was “A (a Ki ratio greater than or equal to 10 fold between the Ki in the presence of SAM and the Ki in the presence of MTA)”, the IC50 [4] was under 1 µM and the “MTAP Intact/Deleted Ratio” value [4] was “A* (an IC50 ratio greater than or equal to 10 fold between the IC50 in the HAP1 MTAP-intact cell line and the HAP1 MTAP-deleted cell line)”. For the same compound, the IC50 [5] was 1 to 10 µM.
`CC(=O)N1CC(Nc2cc(C(=O)NC[C@@H](O)[C@@H]3Cc4ccc(OCc5ocnc5C)cc4CN3)cc(N3CCCCC3)c2)C1` [Compound 59, 3-[(1-acetylazetidin-3-yl)amino]-N-[(2R)-2-hydroxy-2-[(3S)-7-[(4-methyloxazol-5-yl)methoxy]-1,2,3,4-tetrahydroisoquinolin-3-yl]ethyl]-5-(1-piperidyl)benzamide] was tested, and the IC50 (PRMT5 [1]) was 0.05 to 0.5 µM, the IC50 (PRMT5 [2]) was 0.05 to 0.5 µM and the IC50 (PRMT5 [3]) was 0.05 to 0.5 µM. For the same compound, the “SAM/MTA Ratio” value (PRMT5 [3]) was “A (a Ki ratio greater than or equal to 10 fold between the Ki in the presence of SAM and the Ki in the presence of MTA)”, the IC50 [4] was at least 10 µM and the “MTAP Intact/Deleted Ratio” value [4] was “C* (an IC50 ratio of less than 3 fold between the IC50 in the HAP1 MTAP-intact cell line and the HAP1 MTAP-deleted cell line)”. For the same compound, the IC50 [5] was at least 10 µM.
With `CC(=O)N1CCC(Nc2cc(C(=O)NC[C@@H](O)[C@@H]3Cc4ccc(OCc5ocnc5C)cc4CN3)cc(N3CCN(C)CC3)n2)CC1` [Compound 54, 2-[(1-acetyl-4-piperidyl)amino]-N-[(2R)-2-hydroxy-2-[(3S)-7-[(4-methyloxazol-5-yl)methoxy]-1,2,3,4-tetrahydroisoquinolin-3-yl]ethyl]-6-(4-methylpiperazin-1-yl)pyridine-4-carboxamide] the IC50 (PRMT5 [1]) was 0.05 to 0.5 µM, the IC50 (PRMT5 [2]) was 0.05 to 0.5 µM and the IC50 (PRMT5 [3]) was under 0.05 µM. The “SAM/MTA Ratio” value (PRMT5 [3]) was “A (a Ki ratio greater than or equal to 10 fold between the Ki in the presence of SAM and the Ki in the presence of MTA)”, the IC50 [4] was 1 to 10 µM and the “MTAP Intact/Deleted Ratio” value [4] was “C* (an IC50 ratio of less than 3 fold between the IC50 in the HAP1 MTAP-intact cell line and the HAP1 MTAP-deleted cell line)”. For the same compound, the IC50 [5] was at least 10 µM.
`COc1cc(C(=O)NC[C@@H](O)[C@@H]2Cc3ccc(OCc4ocnc4C)cc3CN2)cc(NC2CCC2)n1` [Compound 26, 2-(cyclobutylamino)-N—((R)-2-hydroxy-2-((S)-7-((4-methyloxazol-5-yl)methoxy)-1,2,3,4-tetrahydroisoquinolin-3-yl)ethyl)-6-methoxyisonicotinamide] showed an IC50 (PRMT5 [1]) of 0.05 to 0.5 µM, an IC50 (PRMT5 [2]) of 0.05 to 0.5 µM and an IC50 (PRMT5 [3]) of under 0.05 µM. The “SAM/MTA Ratio” value (PRMT5 [3]) was “A (a Ki ratio greater than or equal to 10 fold between the Ki in the presence of SAM and the Ki in the presence of MTA)”, the IC50 [4] was under 1 µM and the “MTAP Intact/Deleted Ratio” value [4] was “C* (an IC50 ratio of less than 3 fold between the IC50 in the HAP1 MTAP-intact cell line and the HAP1 MTAP-deleted cell line)”. For the same compound, the IC50 [5] was under 1 µM.
Compound `Cc1ncoc1COc1ccc2c(c1)CN[C@H]([C@H](O)CNC(=O)c1cc(NC3CC4(CCC4)C3)nc(N3CCN(C(=O)C4CC4)CC3)c1)C2` [Compound 42, 2-[4-(cyclopropanecarbonyl)piperazin-1-yl]-N-[(2R)-2-hydroxy-2-[(3S)-7-[(4-methyloxazol-5-yl)methoxy]-1,2,3,4-tetrahydroisoquinolin-3-yl]ethyl]-6-(spiro[3.3]heptan-2-ylamino)pyridine-4-carboxamide] has an IC50 (PRMT5 [1]) of 0.05 to 0.5 µM, an IC50 (PRMT5 [2]) of 0.05 to 0.5 µM and an IC50 (PRMT5 [3]) of 0.05 to 0.5 µM. The “SAM/MTA Ratio” value (PRMT5 [3]) was “A (a Ki ratio greater than or equal to 10 fold between the Ki in the presence of SAM and the Ki in the presence of MTA)”, the IC50 [4] was under 1 µM and the “MTAP Intact/Deleted Ratio” value [4] was “A* (an IC50 ratio greater than or equal to 10 fold between the IC50 in the HAP1 MTAP-intact cell line and the HAP1 MTAP-deleted cell line)”. It also gave an IC50 [5] of under 1 µM.

Reference: patent US12403137B2, “Compounds and methods of use” (Tango Therapeutics, Inc., priority 2019, dated 2025)
